Measurements: patent US20100130457A1, “Phenothiazine Derivatives for Treatment of Asthma” (Immune Control, Inc., priority 2008, published 2010)
Entries after “also recorded” stand apart in the source; their conditions may differ.

Tests used:
muscarinic receptor M3 = muscarinic receptor M3 (Homo sapiens, UniProt P20309); test: In vitro functional antagonism; type: biochemical
human small airway = test: Human precision-cut lung slices (PCLS), small airway contraction; settings: for CCh-induced bronchoconstriction after pretreatment of lung slices: C-027 10^−5 M, formoterol 0.3 nM
Protocol: Human precision-cut lung slices (PCLS) permit evaluation of pharmacological responses of novel drug candidates applied directly to their target tissue.
Human precision-cut lung slices (PCLS, 250 μm thick) containing a small airway were contracted to carbachol, histamine and passively sensitization to induce airway closure±pre-incubation with ICI-735 (10 μM; 2 hours); FIG. 13. For example, human lung slices containing a small airway were incubated overnight with either negative control IgG (4 μg/mL) or positive control IgE (4 μg/mL). The slices were tested as follows: 1) IgG+anti-IgE; 2) IgE+anti-IgE; 3) IgE+Dexamethasone (1 μM)+anti-IgE; and 4) IgE+ICI-735 (10 μM) +anti-IgE. Dexamethasone and ICI-735 were pre-incubated 2 hours prior to anti-IgE; anti-IgE is used to crosslink antibodies and induce mast cell degranulation, which is believed to release histamine and cause airway contract. […]
Human lung tissue contains multiple cell types, including mast cells, that localize in the region of airway smooth muscle, and that increase in number in individuals with asthma. Cross-linking of Fcε;R1 receptors on surfaces of mast cells leads to release of granules that contain smooth muscle contractile agonists, including histamine and leukotrienes.
To test C-027 as a blocker of histamine-induced bronchoconstriction, lung slices were incubated for 2 hours with C-027, and small airway contraction was evaluated after addition of increasing concentrations of histamine.

muscarinic receptor M3, sequence (P20309 whole entry): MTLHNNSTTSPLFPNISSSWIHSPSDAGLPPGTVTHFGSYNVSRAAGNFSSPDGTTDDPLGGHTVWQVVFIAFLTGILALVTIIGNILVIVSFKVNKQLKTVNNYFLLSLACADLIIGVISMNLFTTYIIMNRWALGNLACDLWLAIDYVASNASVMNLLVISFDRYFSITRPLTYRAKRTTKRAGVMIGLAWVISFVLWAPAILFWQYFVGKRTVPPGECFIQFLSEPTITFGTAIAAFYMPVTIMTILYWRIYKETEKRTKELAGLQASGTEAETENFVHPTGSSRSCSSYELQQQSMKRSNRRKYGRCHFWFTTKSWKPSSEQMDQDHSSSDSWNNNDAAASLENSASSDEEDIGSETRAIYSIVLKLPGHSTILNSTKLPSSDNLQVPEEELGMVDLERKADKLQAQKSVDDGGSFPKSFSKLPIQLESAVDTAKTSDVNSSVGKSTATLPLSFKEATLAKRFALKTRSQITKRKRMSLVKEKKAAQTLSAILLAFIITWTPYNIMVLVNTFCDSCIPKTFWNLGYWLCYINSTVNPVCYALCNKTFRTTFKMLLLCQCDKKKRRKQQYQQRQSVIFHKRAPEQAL

NCC(=O)NCCN1CCN(CCCN2c3ccccc3Sc3ccc(C(F)(F)F)cc32)CC1 [ICI-735]
in vitro functional antagonism for muscarinic receptor M3 (muscarinic receptor M3): weak in vitro functional antagonism; also recorded: weak or undetectable
histamine response at the highest concentration tested (human small airway; 10 μM): does not completely prevent
histamine-induced contraction / bronchoconstriction (human small airway; 2 hours pre-incubation, increasing concentrations of histamine): antagonize; also recorded: blocks; also recorded: prevented
CCh-induced bronchoconstriction after pretreatment of lung slices (human small airway): antagonize; also recorded: prevents and reverses bronchoconstriction
CCh-induced bronchoconstriction after pretreatment of lung slices (human small airway; listed as C-027): blocks
airway contraction to IgE/anti-IgE (passive sensitization, mast cell degranulation) (human small airway; ICI-735 10 μM, dexamethasone 1 μM, pre-incubated 2 hours): antagonize; also recorded: attenuation; also recorded: blocks bronchoconstriction
IL-13-induced airway hyper-responsiveness to CCh (human small airway; IL-13 50 ng/mL overnight, compound one hour prior): diminishes
relaxation of maximally contracted airway smooth muscle (human small airway; in the presence of 30 μM CCh, isoproterenol 10 μM): induces relaxation
